# From patent publication US9120838B2, “Saccharide conjugates” (Curators of the University of Missouri, priority 2011, dated 2015)
# Where two headings read alike, the source gives them in different places.
# Key:
# [1] = tested on: THP-1 macrophages; experiment: Cell viability (toxicity) by XTT reduction assay in THP-1 macrophages; type: cell-based, human; details: for toxicity (in words): THP-1 macrophages; for concentration at which toxic to the cells / cell viability compromised: XTT reduction assay
# Description: Cell viability was monitored using an XTT [2,3-bis(2-methoxy-4-nitro-5-sulfophenyl)-2H-tetrazolium-5-carboxanilide] assay. Macrophage metabolic activity was assessed by probing mitochondrial reduction of XTT (Sigma) which is a measure of viability (or toxicity) in response to the synthetic antagonists. Following 6 h treatment with antagonist compounds and LPS, the macrophages were washed with PBS (Hyclone) and incubated with XTT (0.33 mg/mL) and phenazine methosulfate (PMS) (8.3 μM) (Acros, Morris Plains, N.J.) to a final concentration of 0.33 mg/mL and 8.3 μM respectively for 2 h at 37° C. in 5% CO2. The cellular toxicity was then assessed in a platereader using absorbance of reduced XTT at 467 nm.
# [2] = tested on: TNFα production; experiment: Agonist activity: secreted TNFα in THP-1 macrophages in the absence of LPS; type: cell-based, human; details: for agonist activity in the absence of LPS: tested in the absence of LPS; for concentration range with agonist activity: FIG. 4 and FIG. 6
# [3] = tested on: LPS-induced TNFα production; experiment: LPS antagonism assay: inhibition of LPS-induced TNFα production in THP-1 macrophages (ELISA); type: cell-based, human; details: for LPS antagonistic activity: increasing concentrations, 10 ng/mL LPS 6 h; for inhibitory activity against LPS-induced TNFα production: concentration range of 0.1 nM to 10 μM
# Description: Synthetic compounds in solid form were dissolved in tetrahydrofuran (THF), aliquotted in small volumes, vacuum-centrifuged for 1 h and stored at −80° C. as dry compounds. For cellular treatment, an aliquot was dissolved in an appropriate volume of dimethylsulfoxide (DMSO) to give a concentrated working stock solution. This stock solution was further diluted in DMSO to give the desired concentration range. The final concentration of DMSO in the cell treatments was always maintained at 0.6%. Concentrations of Fmoc-containing compounds were verified by absorbance using an extinction coefficient of 7800 M^−1 cm^−1 at 301 nm.
# THP-1 cells were obtained from ATCC (Manassas, Va.) and maintained in RPMI-1640 culture medium (HyClone, Logan, Utah) containing 2 mM L-glutamine, 25 mM HEPES, 1.5 g/L sodium bicarbonate, 10% fetal bovine serum (FBS) (HyClone), 50 units/mL penicillin, 50 μg/mL streptomycin (HyClone), and 50 μM β-mercaptoethanol at 37° C. in 5% CO2. For cellular assay, THP-1 monocytes were centrifuged and resuspended in a fresh growth medium to a cell density of 5×10^5 cells/mL Cells were then seeded in a 48-well plate and differentiated into adherent macrophages by treatment with 10 ng/mL phorbol 12-myristate 13-acetate (PMA) (Sigma) for 24 h at 37° C. in 5% CO2. The non-adherent cells were removed and the adherent cells were washed and replenished with reduced FBS growth medium. For the two wells set aside for calculating percent differentiation, the cells were washed with PBS (Hyclone) prior to removal by 0.25% trypsin-EDTA. Cells in a separate well were removed with 0.25% trypsin and counted under the microscope using a hemocytometer to determine the number of adherent macrophages. For the remaining wells, the cells were pre-incubated with LPS antagonist compounds at different concentrations for 30 min followed by addition of 10 ng/mL ultrapure LPS from E. coli K12 (InvivoGen, San Diego, Calif.) for 6 h at 37° C. in 5% CO2. 0.6% DMSO was used as a control. The cell medium was collected and stored at −20° C. until analyzed by ELISA for secreted TNFα production.
# [4] = tested on: LPS; details: Boons et al.; Shiozaki et al.; Peri et al.; cited from earlier work
# [5] = concentration at which toxicity is seen, human macrophage cells, XTT reduction
# [6] = concentration range showing agonist activity, human macrophage cells
# [7] = human macrophage cells (THP-1), 10 ng/mL LPS for 6 h
# [8] = human macrophage cells (THP-1), 10 ng/mL LPS for 6 h, read-out: TNFα inhibition (IC50)
SMILES,"Toxicity [1, 5]","Agonist activity [2, 6]",agonist activity in the absence of LPS [2],LPS antagonistic activity ([3]; THP-1 macrophages),inhibitory activity against LPS-induced TNFα production [3],"TNFα inhibition (IC50) [3, 7]",toxicity (in words) ([1]; XTT reduction),"IC50 [3, 8] [nM]",further results
"CO[C@H]1O[C@H](COC(=O)CCC(=O)OC[C@H](N)C(=O)O)[C@@H](O)[C@H](OCc2ccccc2)[C@H]1OCc1ccccc1 [Compound 13, Methyl 2,3-di-O-benzyl-6-O-(4-((S)-2-amino-2-carboxyethyl)oxy-4-oxobutanoyl)-α-D-glycopyranoside]",None observed,None observed,no agonist activity,do not display LPS antagonistic activity,no inhibitory activity,None observed,,,
"CO[C@H]1OC(COC(=O)CCC(=O)OC[C@H](NC(=O)OCC2c3ccccc3-c3ccccc32)C(=O)O)[C@@H](O)[C@H](OCc2ccccc2)C1OCc1ccccc1 (stereo partly drawn) [Compound 11, Methyl 2,3-di-O-benzyl-6-O-(4-((S)-2-(9-fluorenylmethoxyearbonyl)amino-2-carboxyethyl)oxy-4-oxobutanoyl)-α-D-glycopyranoside]",>10 µM,None observed,,displays LPS antagonistic activity,,,cell toxicity,46000,concentration at which toxic to the cells / cell viability compromised [1]: 30 to 100 µM; concentrations at which LPS-induced TNFα production is significantly inhibited ([3]; THP-1 macrophages): greater than 10 μM
"CO[C@H]1OC(COC(=O)CCC(=O)OC[C@H](NC(=O)OCC2c3ccccc3-c3ccccc32)C(=O)OC(C)(C)C)[C@@H](O)[C@H](OCc2ccccc2)C1OCc1ccccc1 (stereo partly drawn) [Compound 10, Methyl 2,3-di-O-benzyl-6-O-(4-((S)-2-(9-fluorenylmethoxyearbonyl)amino-3-(tert-butoxy)-3-oxopropyl)oxy-4-oxobutanoyl)-α-D-glycopyranoside]",None observed,None observed,no agonist activity,do not display LPS antagonistic activity,no inhibitory activity,None observed,,,
"CO[C@H]1O[C@H](COC(=O)CCC(=O)OC[C@H](N)C(=O)OC(C)(C)C)[C@@H](O)[C@H](OCc2ccccc2)[C@H]1OCc1ccccc1 [Compound 12, Methyl 2,3-di-O-benzyl-6-O-(4-((S)-2-amino-3-(tert-butoxy)-3-oxopropyl)oxy-4-oxobutanoyl)-α-D-glycopyranoside]",None observed,None observed,no agonist activity,do not display LPS antagonistic activity,no inhibitory activity,None observed,,,
"CCCCCCCCCCCCCC(=O)O[C@H]1[C@@H](OC)O[C@H](COC(=O)CCC(=O)OC[C@H](NC(=O)OCC2c3ccccc3-c3ccccc32)C(=O)O)[C@@H](O)[C@@H]1OC(=O)CCCCCCCCCCCCC [Compound 19, Methyl 6-O-(4-((S)-2-(9-fluorenylmethoxyearbonyl)amino-2-carboxyethyl)oxy-4-oxobutanoyl)-2,3-di-O-tetradecanoyl-α-D-glucopyranoside]",>10 µM,10 to 30 µM,,highly potent LPS antagonistic activity,,,,3000,concentration at which toxic to the cells / cell viability compromised [1]: ≥ 10 µM; Toxicity ([1]; at 5 μM compound): no observable toxicity; concentration range with agonist activity [2]: 10 to 30 µM; LPS response blocked ([3]; 5 μM compound): 80%; concentration at which inhibition of LPS-induced TNFα begins ([3]; THP-1 macrophages): ≥ 550 nM
"CCCCCCCCCCCCCCO[C@H]1[C@@H](OC)O[C@H](COC(=O)CCC(=O)OC[C@H](NC(=O)OCC2c3ccccc3-c3ccccc32)C(=O)O)[C@@H](O)[C@@H]1OCCCCCCCCCCCCCC [Compound 24, Methyl 6-O-(4-((S)-2-(9-fluorenylmethoxycarbonyl)amino-2-carboxyethyl)oxy-4-oxobutanoyl)-2,3-di-O-tetradecanyl-α-D-glucopyranoside]",None observed,None observed,,significant LPS antagonistic activity,,,without toxicity,500,"Toxicity ([1]; tested 0.2 to 40 μM range): no toxicity; Agonist activity ([2]; tested 0.2 to 40 μM range): no toxicity or agonist activity; inhibition at 1 µM ([3]; Homo sapiens, THP-1, 1 μM compound): 70%; inhibition at 40 µM ([3]; Homo sapiens, THP-1, 40 μM compound, read-out: overall inhibition of LPS-induced TNFα production): 90%; IC50 ([3]; Macrophage, LPS-induced TNFα production in human macrophages, FIG. 5, read-out: IC50, curve fitting of the inhibition data): 470 nM"
"CCCCCCCCCCCCCCO[C@H]1[C@@H](OC)O[C@H](C[N+](C)(C)C2CCCC2)[C@@H](O)[C@@H]1OCCCCCCCCCCCCCC [Compound 4, reference compound]",>30 µM,30 to 100 µM,,,,,toxic at high concentrations,6000,antagonistic activity against LPS as reported in the literature [4]: provide antagonistic activity; concentration range with agonist activity [2]: > 10 µM; inhibition range ([3]; LPS-induced TNFα production): 3 to 10 µM
